Counter-ions that a name gives are not always drawn.
Experiments:
[1] = system: pancreatitis induced by choline-deficient ethionine supplemented diet; test: Inhibitory activity against pancreatitis induced by choline-deficient ethionine supplemented diet (CDE diet); serum amylase activity as index of pancreatitis; type: in vivo, ICR female mouse; conditions: serum 64 h after start of CDE diet, twice a day, 6 times in total
Method: Pancreatitis of a mouse was induced by choline-deficient ethionine supplemented diet (CDE diet). A modified method of Lombardi et al [Lombardi et al, Am. J. Pathol., 79, 465-480 (1975)] was carried out. Briefly, the pancreatitis was induced by feeding an ICR female mouse (Charles River Japan, Inc. three-weeks old) choline deficient diet to which 0.5% (w/w) DL-ethionine was added (CDE diet). Sixty four hours after the feeding with the CDE diet, approximately 0.3 ml of the blood was collected from the heart of the mouse under anesthesia with ether. The collected blood was allowed to stand at room temperature for 2 hours to coagulate, followed by centrifugation (at 12,000 rpm for 10 minutes), to obtain serum. The amylase activity in the serum was measured by an amylase activity assay kit (Amylase B-Test Wako, product of Wako Pure Chemical Industries, Ltd.) and was designated as an index of pancreatitis. The test compound suspended in a 0.5% (w/v) tragacanth solution was administered to mice one hour before the feeding of the CDE diet and was administered twice a day, 6 times in total. The control group was fed with the CDE diet to induce pancreatitis but the test compounds were not administered to the control group. The normal group was not fed with the CDE diet but was fed with ordinary food.

[2] = system: cerulein-induced pancreatitis; test: Inhibitory activity against cerulein-induced pancreatitis; serum amylase activity as index of pancreatitis; type: in vivo, Wistar rats; conditions: Table 6, serum 3 h after final cerulein (20 µg/kg i.p., four times), control group 48.7
Method: Induction of experimental acute pancreatitis in rats was carried out by a modified method of Otsuki et al [Otsuki et al, Dig. Dis. Sci., 35, 242-250 (1990)]. Briefly, cerulein (20 µg/kg) was intraperitoneally administered to Wistar rats (Japan SLC, weight: about 200 g) every one hour, four times in total. Three hours after the final administration, the blood was collected from the jugular vein of the rat under anesthesia with ether. The collected blood was allowed to stand at room temperature for 2 hours to coagulate, followed by centrifugation (at 12,000 rpm for 10 minutes), to obtain serum. The amylase activity of the serum was measured using an amylase activity assay kit (Amylase B-Test Wako, product of Wako Pure Chemical Industries, Ltd.) and was designated as an index of pancreatitis. The test compound suspended in a 0.5% (w/v) tragacanth solution was orally administered 30 minutes before the first injection of the cerulein. The control group is defined as a group in which pancreatitis was induced, but to which the test compounds were not administered.

[3] = Table 4, dose 10 mg/kg, control group 64.7, normal group 6.6
[4] = Table 4, dose 30 mg/kg, control group 64.7, normal group 6.6

Q: Which results are given for `COc1cccc(CCc2ccccc2OCC[C@@H]2C[C@@H](O)CN2C)c1.Cl` [Preparation Example 18, (2R,4R)-4-Hydroxy-2-[2-[2-[2-(3-methoxyphenyl)ethyl]phenoxy]ethyl]-1-methylpyrrolidine hydrochloride]?
A: Amylase activity ([1]; Table 5, dose 10 mg/kg, control group 48.0, normal group 8.7): 25.7 IU/ml; Amylase activity ([1]; Table 5, dose 30 mg/kg, control group 48.0, normal group 8.7): 21.8 IU/ml

Q: `COc1cc(CCc2cc(F)ccc2OCC[C@@H]2C[C@@H](O)CN2C)ccc1F` [Preparation Example 2, (2R,4R)-2-[2-[4-Fluoro-2-[2-(4-fluoro-3-methoxypheny)ethyl]phenoxy]ethyl]-4-hydroxy-1-methylpyrrolidine hydrochloride] was tested. Which Amylase activity [1, 3] did it give?
A: 53.7 IU/ml

Q: And the Amylase activity [1, 4]?
A: 31.2 IU/ml

Q: Which results are given for `COc1cc(CCc2ccccc2OCC[C@@H]2C[C@@H](O)CN2C)ccc1F.Cl` [Preparation Example 4, (2R,4R)-2-[2-[2-[2-(4-Fluoro-3-methoxyphenyl)ethyl]phenoxy]ethyl]-4-hydroxy-1-methylpyrrolidine hydrochloride]?
A: Amylase activity [1, 3]: 48.4 IU/ml; Amylase activity [1, 4]: 30.5 IU/ml

Q: `CCCCCCCCCCCC(=O)O[C@@H]1C[C@@H](CCOc2ccccc2CCc2cccc(OC)c2)N(C)C1.Cl` [Preparation Example 3, (2R,4R)-4-Lauroyloxy-2-[2-[2-[2-(3-methoxyphenyl)ethyl]phenoxy]ethyl]-1-methylpyrrolidine hydrochloride] was tested. Which Amylase activity ([1]; Table 3, dose 10 mg/kg, control group 71.7, normal group 7.4) did it give?
A: 35.0 IU/ml

Q: And the Amylase activity ([1]; Table 3, dose 30 mg/kg, control group 71.7, normal group 7.4)?
A: 32.1 IU/ml

Q: And the Amylase activity ([2]; dose 10 mg/kg orally 30 minutes before first cerulein)?
A: 43.6 IU/ml

Q: And the Amylase activity ([2]; dose 30 mg/kg orally 30 minutes before first cerulein)?
A: 34.9 IU/ml

Q: What about the Amylase activity ([2]; dose 100 mg/kg orally 30 minutes before first cerulein) of the same compound?
A: 31.7 IU/ml

— patent EP0958817A1, “COMPOSITION CONTAINING DIARYLALKANE DERIVATIVE AS THE ACTIVE INGREDIENT FOR TREATING OR PREVENTING PANCREATITIS” (SANKYO COMPANY LIMITED, priority 1996, dated 1998)
